Results as given in article PMC8296573, “Synthesis and Biological Evaluation of Fingolimod Derivatives as Antibacterial Agents” (ACS Omega, 2021).
Values after ≈ are worked out from the molar mass of the structure shown. Where two headings read alike, the source gives them in different places.

Key:
S. aureus ATCC 25923 [1] = test: Antibacterial activity, pre-exposure (planktonic cells and biofilm formation); format: cell-based, Staphylococcus aureus; conditions: for MIC / inhibition at 5 µM / inhibition at 10 µM / inhibition at 15 µM / inhibition at 25 µM: Staphylococcus aureus, ATCC25923; for inhibition at 5 µM / inhibition at 10 µM / inhibition at 15 µM / inhibition at 25 µM / Average inhibition %, biofilms viability / Average inhibition %, planktonic cells viability: pre-exposure, ± SD
Summary of the method: (§1)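 Pre-exposure format: compound and bacterial culture co-incubated 18 h, 37 °C, aerobic, 220 rpm. Planktonic: turbidity (OD) plus resazurin viability, 20 μM final. Biofilm: PBS wash, 20 μM resazurin, then ethanol fixation and crystal violet staining, A595.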

A. baumannii NCTC 13423 = test: Antibacterial activity, pre-exposure; format: cell-based, Acinetobacter baumannii; conditions: for Average inhibition %, biofilms viability / Average inhibition %, planktonic cells viability / inhibition at 10 µM / inhibition at 15 µM / inhibition at 25 µM / inhibition at 50 µM: A. baumannii NCTC 13423, pre-exposure, ± SD; for inhibition at 10 µM / inhibition at 15 µM / inhibition at 25 µM / inhibition at 50 µM / MIC: Acinetobacter baumannii, NCTC13423
Summary of the method: as §1

P. aeruginosa ATCC 9027 = test: Antibacterial activity, pre-exposure; format: cell-based, Pseudomonas aeruginosa; conditions: for Average inhibition %, biofilms viability / Average inhibition %, planktonic cells viability / inhibition at 50 µM / inhibition at 100 µM / inhibition at 150 µM / inhibition at 200 µM: P. aeruginosa ATCC 9027, pre-exposure, ± SD; for MIC / inhibition at 50 µM / inhibition at 100 µM / inhibition at 150 µM / inhibition at 200 µM: Pseudomonas aeruginosa; for inhibition at 50 µM / inhibition at 100 µM / inhibition at 150 µM / inhibition at 200 µM: ATCC9027
Summary of the method: as §1

S. aureus ATCC 25923 [2] = test: Antibacterial activity, post-exposure on preformed 18-h-old biofilms; format: cell-based, Staphylococcus aureus; conditions: for Average inhibition %, biofilms viability / Average inhibition %, planktonic cells viability / inhibition at 25 µM / inhibition at 50 µM / inhibition at 100 µM / inhibition at 200 µM: ± SD; for inhibition at 25 µM / inhibition at 50 µM / inhibition at 100 µM / inhibition at 200 µM: Staphylococcus aureus; for inhibition at 25 µM: ATCC25923, 25 µM; for inhibition at 50 µM: ATCC25923, 50 µM; for inhibition at 100 µM: ATCC25923, 100 µM; for inhibition at 200 µM: ATCC25923, 200 µM
Summary of the method: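 Compounds were applied to preformed 18-h biofilms after medium change and left 24 h. Read-outs: planktonic OD plus resazurin fluorescence (20 μM), biofilm metabolic activity by resazurin 30 min at 37 °C, then biomass by crystal violet absorbance at 595 nm after ethanol fixation.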

[3] = 10 µM, read-out: Average inhibition %, biofilms biomass
[4] = 10 µM, read-out: Average inhibition %, planktonic cells turbidity
[5] = 15 µM, read-out: Average inhibition %, biofilms biomass
[6] = 15 µM, read-out: Average inhibition %, planktonic cells turbidity
[7] = 25 µM, read-out: Average inhibition %, biofilms biomass
[8] = 25 µM, read-out: Average inhibition %, planktonic cells turbidity
[9] = 50 µM, read-out: Average inhibition %, biofilms biomass
[10] = 50 µM, read-out: Average inhibition %, planktonic cells turbidity
[11] = read-out: Average inhibition %, biofilms biomass
[12] = read-out: Average inhibition %, planktonic cells turbidity

CCCCCCCCc1ccc2ccc(CC(N)(CO)CO)nc2c1 [Compound 82, 2-Amino-2-[(7-octylquinolin-2-yl)methyl]propane-1,3-diol]
MIC (S. aureus ATCC 25923 [1]; lowest concentration with no visible growth (>90% inhibition of turbidity and viability of planktonic cells), 18 h, read-out: MIC S. aureus ATCC 25923): 15 µM (≈ 5.17 µg/mL) | inhibition at 5 µM (S. aureus ATCC 25923 [1]; 5 µM, read-out: Average inhibition %, biofilms biomass): 41.7 ± 5.1% | inhibition at 5 µM (S. aureus ATCC 25923 [1]; 5 µM, read-out: Average inhibition %, planktonic cells turbidity): 32.8 ± 33.4% | inhibition at 10 µM (S. aureus ATCC 25923 [1]; [3]): 67.2 ± 23.4% | inhibition at 10 µM (S. aureus ATCC 25923 [1]; [4]): 61.5 ± 33.3% | inhibition at 15 µM (S. aureus ATCC 25923 [1]; [5]): 94.4 ± 4.6% | inhibition at 15 µM (S. aureus ATCC 25923 [1]; [6]): 99.9 ± 0.1% | inhibition at 25 µM (S. aureus ATCC 25923 [1]; [7]): 93 ± 5.8% | inhibition at 25 µM (S. aureus ATCC 25923 [1]; [8]): 99.9 ± 0.1% | MIC (S. aureus ATCC 25923 [1]; read-out: MIC (S. aureus)): 15 µM (≈ 5.17 µg/mL) | MIC S. aureus ATCC 25923 (S. aureus ATCC 25923 [1]; lowest concentration with no visible growth (>90% inhibition of turbidity and viability of planktonic cells), 18 h): same MIC as fingolimod | Average inhibition %, biofilms viability (S. aureus ATCC 25923 [1]; 5 µM): 34.4 ± 13.6% | Average inhibition %, planktonic cells viability (S. aureus ATCC 25923 [1]; 5 µM): 6.1 ± 10.6% | Average inhibition %, biofilms viability (S. aureus ATCC 25923 [1]; 10 µM): 63.5 ± 30.9% | Average inhibition %, planktonic cells viability (S. aureus ATCC 25923 [1]; 10 µM): 33 ± 57.1% | Average inhibition %, biofilms viability (S. aureus ATCC 25923 [1]; 15 µM): 99.7 ± 0.3% | Average inhibition %, planktonic cells viability (S. aureus ATCC 25923 [1]; 15 µM): 99.6 ± 0% | Average inhibition %, biofilms viability (S. aureus ATCC 25923 [1]; 25 µM): 99.7 ± 0.4% | Average inhibition %, planktonic cells viability (S. aureus ATCC 25923 [1]; 25 µM): 99.7 ± 0% | Average inhibition %, biofilms viability (A. baumannii NCTC 13423; 10 µM): 3.9 ± 5.3% | Average inhibition %, planktonic cells viability (A. baumannii NCTC 13423; 10 µM): 10.4 ± 9% | Average inhibition %, biofilms viability (A. baumannii NCTC 13423; 15 µM): 96.5 ± 6% | Average inhibition %, planktonic cells viability (A. baumannii NCTC 13423; 15 µM): 99.5 ± 0.5% | Average inhibition %, biofilms viability (A. baumannii NCTC 13423; 25 µM): 100.7 ± 1.1% | Average inhibition %, planktonic cells viability (A. baumannii NCTC 13423; 25 µM): 99.7 ± 0% | Average inhibition %, biofilms viability (A. baumannii NCTC 13423; 50 µM): 99 ± 1.3% | Average inhibition %, planktonic cells viability (A. baumannii NCTC 13423; 50 µM): 99.6 ± 0% | inhibition at 10 µM (A. baumannii NCTC 13423; [3]): 13.3 ± 12.9% | inhibition at 10 µM (A. baumannii NCTC 13423; [4]): 1 ± 1.4% | inhibition at 15 µM (A. baumannii NCTC 13423; [5]): 74.7 ± 11.1% | inhibition at 15 µM (A. baumannii NCTC 13423; [6]): 98.3 ± 2.5% | inhibition at 25 µM (A. baumannii NCTC 13423; [7]): 88.6 ± 7.8% | inhibition at 25 µM (A. baumannii NCTC 13423; [8]): 99.8% | inhibition at 50 µM (A. baumannii NCTC 13423; [9]): 82.6 ± 12.7% | inhibition at 50 µM (A. baumannii NCTC 13423; [10]): 99.4 ± 0.1% | MIC (A. baumannii NCTC 13423; pre-exposure, Inactive = no activity up to 50 μM, > = some inhibition but no MIC reached, read-out: MIC A. baumannii NCTC 13423): 15 µM (≈ 5.17 µg/mL) | MIC (A. baumannii NCTC 13423; supplementary molecular formula strings sheet, read-out: MIC (A. baumannii)): 15 µM (≈ 5.17 µg/mL) | Average inhibition %, biofilms viability (P. aeruginosa ATCC 9027; 50 µM): 6.4 ± 5.7% | Average inhibition %, planktonic cells viability (P. aeruginosa ATCC 9027; 50 µM): 53.2 ± 3.8% | Average inhibition %, biofilms viability (P. aeruginosa ATCC 9027; 100 µM): 8.3 ± 8.6% | Average inhibition %, planktonic cells viability (P. aeruginosa ATCC 9027; 100 µM): 48.1 ± 18.4% | Average inhibition %, biofilms viability (P. aeruginosa ATCC 9027; 150 µM): 3.5 ± 6% | Average inhibition %, planktonic cells viability (P. aeruginosa ATCC 9027; 150 µM): 57.4 ± 19% | Average inhibition %, biofilms viability (P. aeruginosa ATCC 9027; 200 µM): 31.5 ± 49.1% | Average inhibition %, planktonic cells viability (P. aeruginosa ATCC 9027; 200 µM): 51.6 ± 41.5% | MIC (P. aeruginosa ATCC 9027; ATCC9027, pre-exposure, Inactive = no activity up to 200 μM, > = some inhibition but no MIC reached, read-out: MIC P. aeruginosa ATCC 9027): > 200 µM | MIC (P. aeruginosa ATCC 9027; ATCC9027, supplementary molecular formula strings sheet, read-out: MIC (P. aeruginosa)): > 200 µM | inhibition at 50 µM (P. aeruginosa ATCC 9027; [9]): 7.6 ± 7% | inhibition at 50 µM (P. aeruginosa ATCC 9027; [10]): 46.8 ± 2.3% | inhibition at 100 µM (P. aeruginosa ATCC 9027; 100 µM, read-out: Average inhibition %, biofilms biomass): 1.8 ± 2.7% | inhibition at 100 µM (P. aeruginosa ATCC 9027; 100 µM, read-out: Average inhibition %, planktonic cells turbidity): 51.6 ± 8.5% | inhibition at 150 µM (P. aeruginosa ATCC 9027; 150 µM, read-out: Average inhibition %, biofilms biomass): 2.7 ± 4.8% | inhibition at 150 µM (P. aeruginosa ATCC 9027; 150 µM, read-out: Average inhibition %, planktonic cells turbidity): 61.3 ± 19.9% | inhibition at 200 µM (P. aeruginosa ATCC 9027; 200 µM, read-out: Average inhibition %, biofilms biomass): 27.5 ± 24.4% | inhibition at 200 µM (P. aeruginosa ATCC 9027; 200 µM, read-out: Average inhibition %, planktonic cells turbidity): 75.7 ± 14.1% | Average inhibition %, biofilms viability (S. aureus ATCC 25923 [2]; 25 µM): 11.8 ± 8.4% | Average inhibition %, planktonic cells viability (S. aureus ATCC 25923 [2]; 25 µM): 0 ± 0% | Average inhibition %, biofilms viability (S. aureus ATCC 25923 [2]; 50 µM): 27.8 ± 14.6% | Average inhibition %, planktonic cells viability (S. aureus ATCC 25923 [2]; 50 µM): 17.9 ± 25.5% | Inhibition of viability and total biomass of preformed biofilms (S. aureus ATCC 25923 [2]; 100 μM): at least 70% | Average inhibition %, biofilms viability (S. aureus ATCC 25923 [2]; 100 µM): 81.5 ± 32.8% | Average inhibition %, planktonic cells viability (S. aureus ATCC 25923 [2]; 100 µM): 94.5 ± 10% | Average inhibition %, biofilms viability (S. aureus ATCC 25923 [2]; 200 µM): 100.2 ± 0.2% | Average inhibition %, planktonic cells viability (S. aureus ATCC 25923 [2]; 200 µM): 100.5 ± 0.5% | inhibition at 25 µM (S. aureus ATCC 25923 [2]; [11]): 45.6 ± 7.5% | inhibition at 25 µM (S. aureus ATCC 25923 [2]; [12]): 14.1 ± 11.7% | inhibition at 50 µM (S. aureus ATCC 25923 [2]; [11]): 51.6 ± 10.3% | inhibition at 50 µM (S. aureus ATCC 25923 [2]; [12]): 34.6 ± 28.4% | inhibition at 100 µM (S. aureus ATCC 25923 [2]; [11]): 79.6 ± 17% | inhibition at 100 µM (S. aureus ATCC 25923 [2]; [12]): 79.1 ± 11.5% | inhibition at 200 µM (S. aureus ATCC 25923 [2]; [11]): 79.8 ± 5.7% | inhibition at 200 µM (S. aureus ATCC 25923 [2]; [12]): 77.9 ± 10%
